This is an account of results in publication PMC7617456, “Cryptosporidium lysyl-tRNA synthetase inhibitors define the interplay between solubility and permeability required to achieve efficacy” (Science translational medicine, 2024).

The subject of one data set is C. parvum. The data set can be described thus: microbe, parasite or virus in culture. It is filed as cell-based, Cryptosporidium parvum.
Data set [1] can be described thus: Aqueous (kinetic) solubility by UHPLC. It is filed as physicochemical. The note with it: PBS pH 7.4, UHPLC. Here is the method:
As previously described.(27) […]
samples were prepared by adding 5 µL stock to PBS pH 7.4 (195 µL). This solution was mixed […]
The solubility test samples were […]
vacuum ﬁ ltered (Millipore Multiscreen HTS ﬁ lter, 96-well format) to remove any undissolved […]
material. The ﬁ ltrate was analyzed for dissolved drug compound using a truncated UHPLC […]
methodology. A calibration solution was prepared for each test compound. The 10 mM stock […]
solution was diluted in DMSO to give a 500 µM solution. This was further diluted with 50:50 […]
acetonitrile:water to give a 50 µM solution. Aliquots (0.2, 2.0, and 5.0 µL) of this 50 µM solution were injected onto the UHPLC system, and the areas of the resultant peaks were […]
integrated to produce a calibration line. Aliquots of the test sample ﬁ ltrate (0.4 and 5.0 µL) […]
were injected onto the UHPLC system and the resultant test compound peak areas quantiﬁ ed […]
using the calibration line. […]

A short description of the next data set: PAMPA permeability. It is filed as in vitro ADME. The note with it: for Papp at 5 h, 10 µM: PAMPA, pH 7.4, pH 7.4; for PAMPA Papp: pH 7.4. Here is the method:
Solubility test samples were prepared by adding 5 μL stock to PBS pH 7.4 (195 μL). […] […] vacuum […] (Millipore Multiscreen HTS fi lter, 96-well format) to remove any undissolved material. The […] analyzed for dissolved drug compound using a truncated UHPLC methodology. A calibration solution was prepared for each test compound. […] Aliquots of the test sample […] (0.4 and 5.0 μL) were injected onto the UHPLC system and the resultant test compound peak areas quantifi ed […] PAMPA per meability As previously described.(28) The permeability assay was performed using a 96-well precoated BD Gentest PAMPA plate (BD Biosciences). Each well was divided into two chambers: donor and acceptor, separated by a lipid-oil-lipid trilayer constructed in a porous fi lter. […] Stock solutions (5 mM) of the compound were prepared in DMSO. […] The compound dissolved in phosphate buffered saline was added to the donor side of the membrane, and phosphate-buffered saline without the compound was added to the acceptor side. The PAMPA plate was left at room temperature for 5 h then an aliquot (100 μL) was removed from both acceptor and donor compartments and mixed with acetonitrile (80 μL) containing an internal standard: donepezil at 50 ng/mL. The samples were centrifuged (10 min, 5 °C, 3270×g) to sediment lipids and sealed prior to UPLC-MS/MS analysis using a Quattro Premier XE (Waters Corp, USA). Recovery of the compound from donor and acceptor wells was calculated, and data were only accepted when recovery exceeded 70%.

Data set [2] can be described thus: Biopharmaceutical Classification System (BCS) categorization. It is filed as physicochemical. As to conditions: cut-offs solubility 100 μM, permeability 30 nm/s; Table S1 prints 1-4 for I-IV. From the text:
To investigate our key parameters, solubility and permeability, we used the Biopharmaceutical Classification System (BCS)([13]) to categorize our tool compounds in a methodical way. […] Restricting either of these properties is likely to have a rate-determining effect on absorption (Class II, purple; Class III, teal). Using the BCS to prioritize compounds for in vivo studies allowed us to systematically examine these individual property combinations and determine whether modulating solubility or permeability influenced compound efficacy. Our hypothesis was that slow absorption due to suboptimal solubility or permeability (i.e. Class II or Class III) would maximize compound concentration at the biophase following a single oral dose.
(A) Schematic of Biopharmaceutical Classification System (BCS). (B) Aqueous solubility and Parallel Artificial Membrane Permeability Assay (PAMPA) measurements of tool compounds from each BCS class. Data are means of two technical replicates. Solubility and permeability cut-offs were defined at 100 μM and 30 nm/s respectively. Raw data reported for all tool compounds in Table S1. (C) NOD SCID Gamma mice were infected with wild type C. parvum. Vehicle, positive control, or tool compound was administered via oral gavage starting day 7 post infection (PI) for 7 days (gray box indicates treatment period). Fecal samples were collected on days indicated by arrows. Fecal samples were collected from individual mice (4 animals per treatment group) and analyzed by qPCR to quantify parasite shedding (oocysts/g). (D) Log reduction in oocyst shedding measured on day 14 PI vs day 21 PI for tool compounds (colored by BCS class) dosed orally at either 30 or 50 mg/kg twice a day (BID) for 7 days in NOD SCID Gamma mice. […] Mean oocyst shedding was determined for each group of n=4 mice, for all compounds tested. Log reduction in oocyst shedding was calculated as log (mean oocysts on day 7) – log (mean oocysts on day 14 or 21).

Setting [3] is: Cryptosporidium parvum, HCT-8, 48 h, read-out: C. parvum EC50, co-cultured with HCT-8 cells for 48 hrs.
[4] abbreviates: Cryptosporidium parvum, HCT-8, read-out: C. parvum EC90.
Setting [5] is: 25 °C, aqueous buffer, kinetic from dmso stock.
Where [6] appears, read: calculated from the average EC50 and hill slope, read-out: C. parvum EC90.
Setting [7] is: co-cultured with HCT-8 cells for 48 hrs, read-out: C. parvum EC50.

The structures appear in SMILES notation. In brackets after ≈: the same amount, converted by molar mass. Where two headings read alike, the source gives them in different places.

For `Nc1cc(F)cc2c(=O)cc(C(=O)NCC3(O)CCCCC3)oc12` [DDD229], the 50% effective concentration (EC50) in the data set on C. parvum (setting [3]) was found to be 30 nM. In the data set on C. parvum (setting [4]), the EC90 was 80 nM. In addition, the concentration in solution in data set [1] (setting [5]) (solubility at 24 h) was 1.9 µM (≈ 0.635 µg/mL). In the data set “PAMPA permeability”, this compound gave a Papp at 5 h, 10 µM of 1.9 ×10⁻⁶ cm/s. For the same compound, the “BCS Class” value in data set [2] is listed as 4.

As to `Nc1nc2c(c(C(F)F)n1)C(=O)N(C[C@@H]1CCC[C@H](C(F)(F)F)C1)C2` [DDD352], the 90% effect concentration (EC90) with C. parvum (setting [6]) is 60 nM. In addition, the EC50 in the data set on C. parvum (setting [7]) came to 20 nM. Moreover, the solubility at 24 h in data set [1] is 32 µM (≈ 11.7 µg/mL). Also, in “PAMPA permeability”, the “PAMPA Papp” value amounted to 19.3 ×10⁻⁶ cm/s. Also, the “BCS Class” value in data set [2] stood at 2.

For `Cc1nc(N)nc2c1C(=O)N(C[C@@H]1CCC[C@H](C(F)(F)F)C1)C2` [DDD478], the EC90 in the data set on C. parvum (setting [6]) is 40 nM. Also, in the data set with C. parvum (setting [7]), the EC50 was found to be 20 nM. Besides, the solubility at 24 h in data set [1] stood at 57 µM (≈ 18.7 µg/mL). In “PAMPA permeability”, the “PAMPA Papp” value is 13.8 ×10⁻⁶ cm/s. The “BCS Class” value in data set [2] is listed as 2.

As to `COc1cc(NS(=O)(=O)CCN2CCCC2)c2oc(C(=O)N[C@@H](C)C3CCCCC3)cc(=O)c2c1` [DDD582], the concentration for a half-maximal effect (EC50) in the data set on C. parvum (setting [3]) amounted to 150 nM. Besides, in the data set on C. parvum (setting [4]), the EC90 was 370 nM. The compound further returned a solubility at 24 h in data set [1] (setting [5]) of 225 µM (≈ 114 µg/mL). In the data set “PAMPA permeability”, this compound showed an apparent permeability coefficient (Papp) at 5 h, 10 µM of 1.6 ×10⁻⁶ cm/s. Besides, the “BCS Class” value in data set [2] is reported as 3.

With `COc1ccc2oc(C(=O)NCC3(O)CCCCC3)cc(=O)c2c1` [DDD583], the EC50 with C. parvum (setting [3]) is 140 nM. For the same compound, in the data set with C. parvum (setting [4]), the EC90 turned out to be 330 nM. Moreover, the concentration in solution in data set [1] (setting [5]) (solubility at 24 h) came to 33 µM (≈ 10.9 µg/mL). The Papp at 5 h, 10 µM in “PAMPA permeability” came to 11.5 ×10⁻⁶ cm/s. Also, in data set [2], the “BCS Class” value is 2.

For the compound `O=C(NCC1CCCCC1)c1cc(=O)c2cc(F)c(F)c(O)c2o1` [DDD690], in the data set with C. parvum (setting [3]), the EC50 was determined as 190 nM. Besides, the EC90 in the data set on C. parvum (setting [4]) was found to be 370 nM. For the same compound, in data set [1] (setting [5]), the concentration in solution (solubility at 24 h) came to 226 µM (≈ 76.2 µg/mL). This compound also showed a Papp at 5 h, 10 µM in the data set “PAMPA permeability” of 3.2 ×10⁻⁶ cm/s. For the same compound, in data set [2], the “BCS Class” value was found to be 1.

`O=C(NCC1CCCCO1)c1cc(=O)c2ccc(F)c(O)c2o1` (stereo not shown) [DDD695]: the EC50 in the data set with C. parvum (setting [3]) was 80 nM. The 90% effect concentration (EC90) in the data set with C. parvum (setting [4]) was determined as 180 nM. The concentration in solution in data set [1] (setting [5]) (solubility at 24 h) was 236 µM (≈ 75.8 µg/mL). For the same compound, in the data set “PAMPA permeability”, the Papp at 5 h, 10 µM worked out at 1.1 ×10⁻⁶ cm/s. Moreover, the “BCS Class” value in data set [2] is on record as 3.

In the case of `O=C(NCC1CCCCC1)c1cc(=O)c2ccc(F)c(O)c2o1` [DDD714], the EC50 in the data set with C. parvum (setting [3]) was 30 nM. The 90% effect concentration (EC90) with C. parvum (setting [4]) turned out to be 50 nM. In addition, the solubility at 24 h in data set [1] (setting [5]) is 377 µM (≈ 120 µg/mL). Also, the Papp at 5 h, 10 µM in the data set “PAMPA permeability” was determined as 4.3 ×10⁻⁶ cm/s. In addition, the “BCS Class” value in data set [2] is 1.

For the compound `O=C(NCC1(O)CCCCC1)c1cc(=O)c2ccc(F)c(O)c2o1` [DDD844], the EC50 in the data set with C. parvum (setting [3]) came to 170 nM. The 90% effect concentration (EC90) in the data set with C. parvum (setting [4]) was 460 nM. In data set [1] (setting [5]), this compound had a solubility at 24 h of 63 µM (≈ 21.1 µg/mL). The same compound showed an apparent permeability (Papp) at 5 h, 10 µM in the data set “PAMPA permeability” of 0.17 ×10⁻⁶ cm/s. Further, the “BCS Class” value in data set [2] turned out to be 4.

Turning to `Nc1nc2c(c(C(F)(F)F)n1)C(=O)N(CC1CCCC3(CC3)C1)C2` (stereo not shown) [DDD909], the EC90 in the data set on C. parvum (setting [6]) is 130 nM. Moreover, the half-maximal effective concentration (EC50) in the data set with C. parvum (setting [7]) was 70 nM. The same compound yielded a solubility at 24 h in data set [1] of 14 µM (≈ 4.76 µg/mL). The “PAMPA Papp” value in the data set “PAMPA permeability” worked out at 17.4 ×10⁻⁶ cm/s. In data set [2], the “BCS Class” value is 2.

In the case of `O=C(NCC1(F)CCCCC1)c1cc(=O)c2ccc(F)c(O)c2o1` [DDD993], in the data set with C. parvum (setting [3]), the EC50 was 100 nM. Further, in the data set on C. parvum (setting [4]), the EC90 was determined as 150 nM. For the same compound, the solubility at 24 h in data set [1] (setting [5]) is 234 µM (≈ 78.9 µg/mL). Moreover, the Papp at 5 h, 10 µM in the data set “PAMPA permeability” stood at 6.3 ×10⁻⁶ cm/s. Also, the “BCS Class” value in data set [2] worked out at 1.
